Reference: ChEMBL document CHEMBL4342470, “Detection of Active Granzyme A in NK92 Cells with Fluorescent Activity-Based Probe” (J Med Chem, 2020)
Active and inactive are the calls of the source. The rule behind the calls is not given here. Non-standard residues stand in square brackets, D forms with d. Residues, ends and D or L forms follow the SMILES beside them. ξ: configuration not given here. *: point of attachment. Phe(4-guanidino) = N=C(N)Nc1ccc(C[C@H](N)C(=O)O)cc1; Oic(3aξ,7aξ) = O=C(O)[C@@H]1CC2CCCCC2N1; Phe(4-F) = N[C@@H](Cc1ccc(F)cc1)C(=O)O; ACC = NC(=O)Cc1cc(=O)oc2cc(N*)ccc12; Met(O) = CS(=O)CC[C@H](N)C(=O)O; Tic = O=C(O)[C@@H]1Cc2ccccc2CN1; X1 = Clc1cccc(Cl)c1C*

Assays:
[1] = biological target: Granzyme B (Homo sapiens) (UniProt P10144); assay: Substrate activity at Granzyme B (unknown origin) expressed in Pichia pastoris assessed as compound hydrolysis at 200 uM incubated for 30 mins by fluorescence based assay relative to control
Chain of Granzyme B (Homo sapiens) (P10144 whole entry): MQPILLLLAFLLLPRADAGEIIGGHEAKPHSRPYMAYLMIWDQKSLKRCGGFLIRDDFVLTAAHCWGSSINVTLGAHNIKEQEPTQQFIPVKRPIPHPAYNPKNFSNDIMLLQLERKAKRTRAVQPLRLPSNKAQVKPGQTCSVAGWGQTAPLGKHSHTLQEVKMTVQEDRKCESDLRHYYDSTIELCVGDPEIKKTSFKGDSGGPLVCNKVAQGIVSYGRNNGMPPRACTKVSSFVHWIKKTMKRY

[2] = biological target: T1, Granzyme A (Homo sapiens) (UniProt P12544); assay: Substrate activity at Granzyme A (unknown origin) expressed in Pichia pastoris incubated for 30 mins by fluorescence based assay
T1 sequence (whole entry): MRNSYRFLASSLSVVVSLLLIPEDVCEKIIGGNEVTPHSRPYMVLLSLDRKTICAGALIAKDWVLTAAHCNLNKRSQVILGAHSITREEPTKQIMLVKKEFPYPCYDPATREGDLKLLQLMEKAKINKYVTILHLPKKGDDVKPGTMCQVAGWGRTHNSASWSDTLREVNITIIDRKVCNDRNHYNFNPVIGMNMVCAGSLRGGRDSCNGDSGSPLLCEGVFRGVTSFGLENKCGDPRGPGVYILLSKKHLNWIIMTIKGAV

[3] = biological target: T2, Granzyme K (Homo sapiens) (UniProt P49863); assay: Substrate activity at Granzyme K (unknown origin) expressed in Pichia pastoris assessed as compound hydrolysis at 200 uM incubated for 30 mins by fluorescence based assay relative to control; parameters: scale not given: the % may be the effect or the level left
T2 sequence (whole entry): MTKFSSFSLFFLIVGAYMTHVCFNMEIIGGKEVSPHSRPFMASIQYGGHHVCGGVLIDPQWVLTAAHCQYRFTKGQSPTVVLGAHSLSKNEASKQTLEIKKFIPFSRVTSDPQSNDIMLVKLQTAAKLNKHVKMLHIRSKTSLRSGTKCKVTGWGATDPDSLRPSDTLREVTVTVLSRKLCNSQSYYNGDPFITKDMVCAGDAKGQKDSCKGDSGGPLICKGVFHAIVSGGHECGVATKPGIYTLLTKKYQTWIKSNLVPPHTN

| SMILES | Activity [1] | Activity [2] | Activity [3] |
| --- | --- | --- | --- |
| CC[C@H](C)[C@H](NC(C)=O)C(=O)NCC(=O)N1C2CCCCC2C[C@H]1C(=O)N[C@@H](CCCNC(=N)N)C(=O)Nc1ccc2c(CC(N)=O)cc(=O)oc2c1 (stereo partly drawn) (Ac-IG[Oic(3aξ,7aξ)]R-{ACC}) | Active | Active | – |
| CC(=O)N[C@@H](CC[S+](C)[O-])C(=O)NCC(=O)N[C@@H](Cc1ccc(F)cc1)C(=O)N[C@@H](Cc1ccc(NC(=N)N)cc1)C(=O)Nc1ccc2c(CC(N)=O)cc(=O)oc2c1 (stereo not given in full) (Ac-[Met(O)]G[Phe(4-F)][Phe(4-guanidino)]-{ACC}) | – | Active | – |
| CC(=O)N[C@@H](CC[S+](C)[O-])C(=O)NCC(=O)N1CC(OCc2ccccc2)C[C@H]1C(=O)N[C@@H](CCCNC(=N)N)C(=O)Nc1ccc2c(CC(N)=O)cc(=O)oc2c1 (stereo not given in full) | – | Active | – |
| CC(=O)N[C@@H](CC[S+](C)[O-])C(=O)NCC(=O)N[C@@H](Cc1ccc(F)cc1)C(=O)N[C@@H](CCCNC(=N)N)C(=O)Nc1ccc2c(CC(N)=O)cc(=O)oc2c1 (stereo partly drawn) (Ac-[Met(O)]G[Phe(4-F)]R-{ACC}) | – | Active | – |
| CC(=O)N1Cc2ccccc2C[C@H]1C(=O)N[C@@H](CCc1nc2ccccc2s1)C(=O)N1C2CCCCC2C[C@H]1C(=O)N[C@@H](Cc1ccc(NC(=N)N)cc1)C(=O)Nc1ccc2c(CC(N)=O)cc(=O)oc2c1 (stereo not given in full) | – | Active | – |

Continued, values first:

| Activity [1] | Activity [2] | Activity [3] | SMILES |
| --- | --- | --- | --- |
| – | Active | – | CC(=O)N[C@@H](CC[S+](C)[O-])C(=O)NCC(=O)N1CC(OCc2ccccc2)C[C@H]1C(=O)N[C@@H](Cc1ccc(NC(=N)N)cc1)C(=O)Nc1ccc2c(CC(N)=O)cc(=O)oc2c1 (stereo not given in full) |
| inactive | – | 20% | CC(=O)N1Cc2ccccc2C[C@H]1C(=O)NCC(=O)N1C2CCCCC2C[C@H]1C(=O)N[C@@H](CCCNC(=N)N)C(=O)Nc1ccc2c(CC(N)=O)cc(=O)oc2c1 (stereo partly drawn) (Ac-[Tic]G[Oic(3aξ,7aξ)]R-{ACC}) |
| – | Active | – | CC(=O)N[C@@H](CC[S+](C)[O-])C(=O)NCC(=O)N[C@@H](Cc1ccc(OCc2c(Cl)cccc2Cl)cc1)C(=O)N[C@@H](CCCNC(=N)N)C(=O)Nc1ccc2c(CC(N)=O)cc(=O)oc2c1 (stereo partly drawn) (Ac-[Met(O)]GY(X1)R-{ACC}) |
